Assay results from patent US20170266091A1, “Mouthwash Composition Comprising a Peroxide Source and an N-Acyl-L-Arginine Alkyl Ester Salt” (Colgate-Palmolive Company, priority 2014, published 2017).

Tested on: mixed-species bacterial culture (Actinomyces viscosus, Lactobacillus casei, Fusobacterium nucleatum subsp. polymorphum, Streptococcus oralis and Veillonella …)
Test: Short interval kill (SIK) test
Format: cell-based
Conditions: thirty seconds treatment, Live/Dead staining
Protocol: The anti-microbial efficacy of mouthwash formulations according to the present invention was tested using short interval kill (SIK) test. The formulations tested were the same as those used in Example 2. 500 μl of a mixed-species bacterial culture (Actinomyces viscosus (ATCC#43146), Lactobacillus casei (ATCC#334), Fusobacterium nucleatum subsp. polymorphum (ATCC#10953), Streptococcus oralis (ATCC#35037) and Veillonella parvula (ATCC#17745)) were transferred to sterile 2 ml microcentrifuge tubes. The samples were centrifuged for 10 min at ˜21 000×g to pellet bacterial cells. […] The re-suspended samples were subsequently treated with 100 μl of mouthwash or control solution. Bacterial killing was stopped after thirty seconds by adding 1.3 ml of D/E Neutralization Buffer. Samples were centrifuged for 10 min at 10,000 rpm to pellet bacterial cells. […] Finally, the pelleted cells were suspended in 150 μl of sterile PBS and aliquots were transferred to each of three wells of a sterile 96-well plate. To quantify the viable bacteria left after treatment, the bacterial suspensions were stained using Invitrogen BacLight Live/Dead viability kit. This kit consists of two fluorescent dyes, propidium iodine and SYTO9. The first dye, propidium iodide, is a red fluorescent DNA stain that can only penetrate bacterial cells whose membranes have been permeabilized (i.e. those cells that are “dead”). The second dye, SYTO9, is a green fluorescent DNA dye that is able to stain all bacterial cells. The bacterial suspensions were stained by adding 50 μl of a solution containing the two dyes in equal amounts to each well of the 96-well plate. Plates were then incubated for 15 min at room temperature, protected from light. The fluorescence of the samples were measured at an excitation wavelength of 485 nm and emission wavelengths of 535 nm and 635 nm. The results are illustrated in Table 8, and are provided as the percentage of cells that are viable relative to a control treatment with PBS alone.

For `CCO` [Ethanol 100%, Ethanol], the “percentage of cells that are viable relative to PBS control, Run 1” value (Run 1) was 44%, the “percentage of cells that are viable relative to PBS control, Run 2” value (Run 2) was 47% and the “percentage of cells that are viable relative to PBS control, Run 3” value (Run 3) was 48%. For the same compound, the “percentage of cells that are viable relative to PBS control, Average” value (average of 3 runs) was 46%.
